Data as given in patent publication US5371186A, “Synthetic peptides for detoxification of bacterial endotoxins and for the prevention and treatment of septic shock” (priority 1992, dated 1994).
Bridge positions count the residues as written; N and C are the ends. Ends that are not written are not given here. Peptide text beside a SMILES is read from it. * marks the point of attachment. Biotin = O=C1N[C@H]2[C@H](CS[C@H]2CCCCC(=O)*)N1

Tests used:
trypsin in human serum = test: stability towards proteolysis by trypsin in human serum; type: in vitro ADME
Method: (§1) The effects of trypsin present in human serum on Polymyxin "B" and the peptides of invention was determined by combining 10 μl of human serum with 20 μg of the given peptide in 10 μl volume and holding the mixture at a temperature of 37° C. for different intervals of time. At various times, an aliquot of the mixture was processed by HPLC analysis in order to detect the residual amount of the investigated peptide. In Table VI the half-lives time of each peptide investigated are shown as compared to the half-life time of Polymyxin "B".

trypsin = test: as above; type: in vitro ADME; settings: human serum, 37° C., 180 mins; read-out: AMOUNT RECOVERED % after 180 mins
Method: as §1

[1] = prevention of endotoxin-induced death in CD1 mice sensitized with Actinomycin D; type: in vivo, mice (Strain CD1); settings: 0.1 mg/mouse i.v., 1 μg endotoxin i.p.; for Mice surviving: 20 mice per group
Method: Prevention of endotoxin-induced death in mice, has been achieved by intravenous injection of the peptides of the invention. For this experiment, a strain of mice highly sensitive to the lethal activity of bacterial endotoxin has been used. Mice sensitized with Actinomycin D (Strain CD1) show a high sensitivity to extremely low doses of endotoxin. A dose as low as 1 μg of endotoxin per mouse (about 40 μg/kg of body weight) is able to completely kill a population of mice within 24-48 hours.
Groups of 20 mice CD1 have been treated intravenously with the peptides of the invention, with a single dose of 0.1 mg peptide, solubilized in sterile saline, per mouse. Thirty minutes later, mice were challenged by intraperitoneal injection of 1 μg of endotoxin purified from E. Coli strain 055-B5. Surviving mice were recorded every 24 hours during a seven days-period of observation. […] Negative controls received an intravenous injection of saline.
There were 20 mice per group. Mice surviving at each of the seven 24 hours observation periods are listed. The % survival appears in parenthesis. P expresses the level of statistical significance calculated by "t-Test" for each molecule compared to the treatment with saline, considering the total survival rate in each group.

Avidin = Avidin (Gallus gallus, UniProt P02701); settings: cited from earlier work
Chain of Avidin (P02701 25-152, species assumed): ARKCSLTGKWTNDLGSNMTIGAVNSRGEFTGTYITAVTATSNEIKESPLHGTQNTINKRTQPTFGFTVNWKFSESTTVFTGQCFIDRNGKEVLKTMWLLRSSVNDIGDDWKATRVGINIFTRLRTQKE

Compound | Half-Life Time (t/2) (trypsin in human serum; human serum, 37° C.) | remaining at 3 h, 1 mg/mL (trypsin) [%] | further results
CC(C)C[C@@H]1NC(=O)[C@H](Cc2ccccc2)NC(=O)[C@H](CCCCN)NC(=O)[C@@H](N)CSSC[C@@H](C(=O)O)NC(=O)[C@H](CCCCN)NC(=O)[C@H](CCCCN)NC1=O [Peptide I] (H-CKFLKKC-OH; disulfide 1-7) | > 180 min | 70 | 
RYVRYVRYV [Peptide X] | 35 min | 0 | 
CC(C)C[C@@H]1NC(=O)[C@H](CCCCN)NC(=O)[C@H](CCCCN)NC(=O)[C@@H](N)CSSC[C@@H](C(=O)N[C@@H](CCCCN)C(=O)N[C@H](C(=O)N[C@@H](CCCCN)C(=O)O)[C@@H](C)O)NC(=O)[C@H](CCCCN)NC(=O)[C@H](Cc2ccccc2)NC1=O [Peptide IV] (H-CKKLFKCKTK-OH; disulfide 1-7) | 18 min | 0 | 
CC[C@H](C)[C@H](N)C(=O)N[C@@H](CCCCN)C(=O)N[C@H](C(=O)N[C@@H](CCCCN)C(=O)N[C@H]1CSSC[C@@H](C(=O)O)NC(=O)[C@H](CCCCN)NC(=O)[C@H](CCCCN)NC(=O)[C@H](CC(C)C)NC(=O)[C@H](Cc2ccccc2)NC(=O)[C@H](CCCCN)NC1=O)[C@@H](C)O [Peptide VI] (H-IKTKCKFLKKC-OH; disulfide 5-11) | 1,080 min | 76 | 
CC[C@H](C)[C@H](NC(=O)CCCC[C@@H]1SC[C@@H]2NC(=O)N[C@@H]21)C(=O)N[C@@H](CCCCN)C(=O)N[C@H](C(=O)N[C@@H](CCCCN)C(=O)N[C@H]1CSSC[C@@H](C(=O)O)NC(=O)[C@H](CCCCN)NC(=O)[C@H](CCCCN)NC(=O)[C@H](CC(C)C)NC(=O)[C@H](Cc2ccccc2)NC(=O)[C@H](CCCCN)NC1=O)[C@@H](C)O [labeled Peptide VI] (Biotin-IKTKCKFLKKC-OH; disulfide 5-11) |  |  | Half-Life Time (t/2) (trypsin in human serum; human serum or human whole blood, not significantly different from the unlabeled value): ~1200 min
CC(C)C[C@@H]1NC(=O)[C@H](CCCCN)NC(=O)[C@H](CCCCN)NC(=O)[C@@H](N)CSSC[C@@H](C(=O)N[C@@H](CCCCN)C(=O)N[C@H](C(=O)O)[C@@H](C)O)NC(=O)[C@H](CCCCN)NC(=O)[C@H](Cc2ccccc2)NC1=O [Peptide V] (H-CKKLFKCKT-OH; disulfide 1-7) | 240 min | 55 | 
IKTKKFLKKT [Peptide VII] | 50 min | 28 | 
CN(C)CCCN1c2ccccc2Sc2ccc(Cl)cc21 [CPZ, Chlorpromazine] |  |  | % survival ([1]; 24 hs): 50%; Mice surviving ([1]; 24 hs): 10; % survival ([1]; 48 hs): 50%; Mice surviving ([1]; 48 hs): 10; % survival ([1]; 72 hs): 50%; Mice surviving ([1]; 72 hs): 10; % survival ([1]; 96 hs): 50%; Mice surviving ([1]; 96 hs): 10; % survival ([1]; 120 hs): 50%; Mice surviving ([1]; 120 hs): 10; % survival ([1]; 144 hs): 50%; Mice surviving ([1]; 144 hs): 10; % survival ([1]; 168 hs): 50%; Mice surviving ([1]; 168 hs): 10
KFLKFLK [Peptide IX] | 10 min | 0 | 
O=C(O)CCCC[C@@H]1SC[C@@H]2NC(=O)N[C@@H]21 [Biotin] |  |  | K of the reaction with Avidin (Avidin): 10^15
IKFLKFLKFLK [Peptide VIII] | 7 min | 0 | 
CC(C)C[C@@H]1NC(=O)[C@H](Cc2ccccc2)NC(=O)[C@H](CCCCN)NC(=O)[C@@H](NC(=O)[C@H](CCCCN)NC(=O)[C@@H](NC(=O)[C@@H](N)CCCCN)[C@@H](C)O)CSSC[C@@H](C(=O)O)NC(=O)[C@H](CCCCN)NC(=O)[C@H](CCCCN)NC1=O [Peptide II] (H-KTKCKFLKKC-OH; disulfide 4-10) | 50 min | 10 | 
